For four molecules, speed of sound and mass density results are on record in the NIST ThermoML archive (doi:10.1016/j.fluid.2012.08.002).

Numbers after ± are expanded uncertainties.

The conditions of the data set: 101.33 kPa, Liquid; for speed of sound: Sing-around technique in a fixed-path interferometer; for mass density: Vibrating tube method.

For `CCCCCCn1cc[n+](C)c1.F[P-](F)(F)(F)(F)F` [1-hexyl-3-methylimidazolium hexafluorophosphate], the speed of sound (as a rule, the propagation velocity of pressure waves in the medium) was 1449.1 ± 1.2 m/s (288.15 K); 1434.1 ± 1.2 m/s (293.15 K); 1420.3 ± 1.2 m/s (298.15 K); 1407.3 ± 1.2 m/s (303.15 K); 1394.9 ± 1.2 m/s (308.15 K); 1383 ± 1.2 m/s (313.15 K). Further, the speed of sound (318.15 K) turned out to be 1371.5 ± 1.2 m/s. The mass density (in general, the mass of a sample divided by its volume) is recorded as 1302.74 ± 0.49 kg/m3 (288.15 K); 1298.71 ± 0.48 kg/m3 (293.15 K); 1294.69 ± 0.48 kg/m3 (298.15 K); 1290.66 ± 0.48 kg/m3 (303.15 K); 1286.64 ± 0.47 kg/m3 (308.15 K); 1282.63 ± 0.47 kg/m3 (313.15 K). Also, the mass density (318.15 K) is given as 1278.72 ± 0.47 kg/m3.
As to `CCCCCCn1cc[n+](C)c1.F[B-](F)(F)F` [1-hexyl-3-methylimidazolium tetrafluoroborate], the speed of sound reads like this: (288.15 K) 1548.8 ± 1.2 m/s; (293.15 K) 1535 ± 1.2 m/s; (298.15 K) 1521.9 ± 1.2 m/s; (303.15 K) 1509.2 ± 1.2 m/s; (308.15 K) 1497 ± 1.2 m/s; (313.15 K) 1485 ± 1.2 m/s. In addition, the speed of sound (318.15 K) stood at 1473.3 ± 1.2 m/s. Moreover, the mass density is 1155.32 ± 0.36 kg/m3 (288.15 K); 1151.79 ± 0.35 kg/m3 (293.15 K); 1148.26 ± 0.35 kg/m3 (298.15 K); 1144.74 ± 0.35 kg/m3 (303.15 K); 1141.23 ± 0.34 kg/m3 (308.15 K); 1137.83 ± 0.34 kg/m3 (313.15 K). Moreover, the mass density (318.15 K) worked out at 1134.43 ± 0.34 kg/m3.
Turning to `COCCO` [2-methoxyethan-1-ol], the speed of sound runs as follows: (288.15 K) 1376.5 ± 0.85 m/s; (293.15 K) 1359 ± 0.85 m/s; (298.15 K) 1341.7 ± 0.84 m/s; (303.15 K) 1324.5 ± 0.84 m/s; (308.15 K) 1307.1 ± 0.83 m/s; (313.15 K) 1290 ± 0.83 m/s. Further, the speed of sound (318.15 K) was 1272.8 ± 0.82 m/s. Besides, the mass density was 969.374 ± 0.091 kg/m3 (288.15 K); 964.809 ± 0.092 kg/m3 (293.15 K); 960.222 ± 0.094 kg/m3 (298.15 K); 955.615 ± 0.095 kg/m3 (303.15 K); 950.971 ± 0.097 kg/m3 (308.15 K); 946.306 ± 0.098 kg/m3 (313.15 K). For the same molecule, the mass density (318.15 K) is given as 941.609 ± 0.099 kg/m3.
Regarding `CCCCCCn1cc[n+](C)c1.[Br-]` [3-hexyl-1-methyl-1H-imidazolium bromide], the speed of sound (288.15 K) was 1639.8 ± 1.3 m/s; the speed of sound (293.15 K) came out at 1610.6 ± 1.3 m/s; the speed of sound (298.15 K) was found to be 1587.5 ± 1.3 m/s; the speed of sound (303.15 K) turned out to be 1568.1 ± 1.3 m/s; the speed of sound (308.15 K) was 1551.2 ± 1.3 m/s; the speed of sound (313.15 K) stood at 1533.5 ± 1.2 m/s. Further, for the setting “318.15 K”, the speed of sound is 1517.8 ± 1.2 m/s. For the same molecule, the mass density is, setting by setting: (288.15 K) 1231.03 ± 0.42 kg/m3; (293.15 K) 1227.49 ± 0.42 kg/m3; (298.15 K) 1223.82 ± 0.42 kg/m3; (303.15 K) 1220.47 ± 0.41 kg/m3; (308.15 K) 1216.79 ± 0.41 kg/m3; (313.15 K) 1213.28 ± 0.41 kg/m3. In addition, the mass density (318.15 K) is 1209.94 ± 0.4 kg/m3.
